Drawing on PubChem BioAssay AID588571 (Sanford-Burnham Center for Chemical Genomics, 2011), this text covers IC50 for 7 compounds.

Activity calls are given as the source filed them.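 The calls were made as follows: active = mean IC50 at or below 20 µM; inactive = the rest.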

This assay deals with CHO-CHOP cells viability, ATPlite luminescence, 6 h. As to the kind of experiment: CHO-CHOP cell viability loss after compound exposure – 6 h exposure, ATPlite luminescence, cytotoxicity control for UPR adaptive arm activator project, SAR follow-up (AID 588571).
Broadly, the IC50 is the midpoint of a concentration-inhibition curve. `Cc1ccc(NC(=O)c2cc(-c3ccncc3)nc3ccccc23)cc1`: the IC50 is > 80 µM (inactive).
Under `O=C(Nc1ccc(C(F)(F)F)cc1)c1cc(-c2ccncc2)nc2ccccc12` stands 70.4 µM (inactive).
`Cc1nc(Nc2nc(-c3ccccc3)cc(=O)[nH]2)nc2ccccc12`: the IC50 was 60.1 µM (inactive).
For `Cc1cc(Br)cc(NC(=O)c2cc(-c3ccncc3)nc3ccccc23)c1`, the IC50 was > 80 µM (inactive).
In the case of `O=C(Nc1ccc(Br)c(C(F)(F)F)c1)c1cc(-c2ccncc2)nc2ccccc12` it was > 80 µM (inactive).
In the case of `O=C(Nc1ccc(Cl)cc1)c1cc(-c2ccncc2)nc2ccccc12`, the IC50 is 75.4 µM (inactive).
In the case of `O=C(Nc1ccc(F)cc1)c1cc(-c2ccncc2)nc2ccccc12` it was > 80 µM (inactive).
